Source: patent US6852686B2, “Methods for ameliorating icthyosiform skin diseases” (The United States of America as represented by the …, priority 1999, dated 2005)
“Also recorded” adds a separate entry of the source.

Experiments:
[1] = tested on: synthetic lipid vesicles (SLV); assay: Membrane association (binding) to synthetic lipid vesicles, SLV pelleted by ultracentrifugation; details: for effect on involucrin binding to SLV when substituted for PS: SLV containing 8% PS plus 0-20% of the anionic phospholipid; for effect on Ca++-induced binding of involucrin to SLVs: added to buffer, SLVs with 15 mol % PS; for binding to SLV: SLV with 0 or 15% PS, with or without free Ca++
Method: Mixtures of dipalmitoyl-phosphatidylcholine, cholesterol, dipalmitoyl-phosphatidylserine (PS) and other lipids where indicated (all from Sigma, St. Louis, Mo.) were made in chloroform-methanol (95:5). In all cases, the mixtures contained 30% cholesterol. When the amounts of PS or other individual components were varied, phosphatidylcholine was added to make the mixture to 100%. Mixtures were made in 0.5 ml and contained 10 μmol of total lipids. The solvent was flushed away under a stream of N2, dried further under high vacuum for 4 h and then resuspended by vortexing in 0.5 ml of a buffer containing 50 mM Tris-Cl (pH 8.0), 100 mM NaCl, 3 mM NaN3, 5 mM DTT, and 200 mM sucrose. The mixture was sonicated on ice five times each for 1 min using a Branson 250 sonifier with micro probe tip, and allowed to stand at 23° C. to facilitate assembly of SLV. After 1 h the SLV were diluted with 0.5 ml of the above buffer without sucrose, and 200 μl aliquots were centrifuged at 100,000× g for 30 min in a Beckman Airfuge using the A-10 rotor. The top 175 μl was removed, and the pellet resuspended in another 150 μl of sucrose-free buffer. The final stock concentration was 11 μmol/ml.
In all cases, the buffer contained 50 mM Tris-HCl (pH 8.0), 100 mM NaCl, 1 mM DTT, 3 mM NaN3, and other additives where noted. Some mixtures also contained 1 mM CaCl2 or 2 mM EDTA. After mixing, the samples were centrifuged for 45 min at 100,000× g, and the protein content from 50 μl of supernatant was determined by amino acid analysis after acid hydrolysis. Data were usually not corrected for loss of SLV lipids, as in control experiments, cumulated losses were <4% as assayed by ^14C-phosphatidylcholine tracer, and thus neglected from the calculations.
The Ca^++ concentrations in the μM range were set by buffering free Ca^++ with chelators The desired Ca^++/chelator ratios were calculated by the WinMaxC 1.7 computer program (Bers, et al., Methods in Cell Biology Vol 40: A Practical Guide to the Study of Ca^2+ in Living Cells, Nuccitelli, R., ed., pp. 1-327 (1994), herein expressly incorporated by reference in its entirety), and were made by adding the required amounts of 1 M CaCl2 to 0.2 M stock solutions of the following chelators at pH 8.0. Final chelator concentrations in the samples were 10 mM in all cases. Sodium citrate was the chelator for the 20-500 μM Ca^++ range; sodium nitrilotriacetate for the 1-20 μM Ca^++ range; and sodium 1,2-bis(aminophenoxy)ethane-N,N,N′,N′ tetraacetate for the 0.1-1 μM Ca^++ range.

TGase 1 = target: T1, TGase 1 (Homo sapiens, UniProt P22735); assay: Lipid Z esterification of involucrin by TGase 1 on SLV; format: biochemical; details: for involucrin-lipid adduct formation by TGase 1 on SLV membranes: ceramide incorporated in SLV
T1 construct: Recombinant full-length human TGase 1 and TGase 3 enzymes were expressed in Sf9 cells by the BaculoGold system; made in house; host or cells: Sf9 insect cells, BaculoGold baculovirus system, pVL1392 vector
T1 sequence (P22735 1-817): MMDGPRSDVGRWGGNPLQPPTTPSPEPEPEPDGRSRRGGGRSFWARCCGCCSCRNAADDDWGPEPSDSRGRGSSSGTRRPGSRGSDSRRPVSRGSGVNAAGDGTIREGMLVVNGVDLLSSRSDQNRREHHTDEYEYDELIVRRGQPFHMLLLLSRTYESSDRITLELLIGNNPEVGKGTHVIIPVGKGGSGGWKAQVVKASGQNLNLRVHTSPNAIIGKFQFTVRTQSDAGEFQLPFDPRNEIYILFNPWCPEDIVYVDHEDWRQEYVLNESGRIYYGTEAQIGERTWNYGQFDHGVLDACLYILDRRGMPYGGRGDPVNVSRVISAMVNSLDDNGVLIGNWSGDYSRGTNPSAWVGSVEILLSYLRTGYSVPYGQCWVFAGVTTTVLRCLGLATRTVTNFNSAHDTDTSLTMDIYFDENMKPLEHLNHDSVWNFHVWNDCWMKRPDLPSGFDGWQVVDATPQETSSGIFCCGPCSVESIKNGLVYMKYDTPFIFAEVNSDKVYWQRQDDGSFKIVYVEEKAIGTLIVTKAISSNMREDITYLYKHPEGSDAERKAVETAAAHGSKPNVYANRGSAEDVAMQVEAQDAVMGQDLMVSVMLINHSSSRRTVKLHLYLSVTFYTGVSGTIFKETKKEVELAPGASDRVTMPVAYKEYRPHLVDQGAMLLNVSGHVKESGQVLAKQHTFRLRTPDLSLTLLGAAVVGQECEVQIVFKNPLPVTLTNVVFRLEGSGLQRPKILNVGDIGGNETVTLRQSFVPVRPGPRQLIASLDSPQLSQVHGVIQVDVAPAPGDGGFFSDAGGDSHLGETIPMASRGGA
Method: A mixture of 54 mol % dimyristoyl-phosphatidylcholine, 15 mol % dipalmitoyl-phosphatidylserine, 30 mol % cholesterol (all from Sigma, St. Louis, Mo.) and 1 mol % lipid Z was made in chloroform: methanol (9:1). This solution was dried down, taken up in aqueous buffer and dispersed by sonication as before (Nemes et al., J. Biol. Chem., 274: in press (1999)). The SLV suspension was equipped with TGase 1 enzyme by incubation at 37° C. for 15 min prior to adding substrates.
The reactions were stopped by the addition of EDTA to 10 mM.
Following reaction, 0.1 ml 20% SDS in water was added to the samples and the mixture was vortexed. This mixture was precipitated and washed three times with acetone-triethylamine-acetic acid (90:5:5) to remove the SDS and the unbound lipids (Konigsberg, W. H. and L. Henderson, Meth. Enzymol., 91: 254-259 (1983), herein expressly incorporated by reference in its entirety). After further washing with acetone the pellet was dried under vacuum and redissolved in 50 mM Tris-HCl (pH 7.5). Resolubilized protein was digested for 16 h with 2 mol % modified trypsin (Boehringer Mannheim). Peptides were resolved on a 250×2 mm PrimesphereC4 HPLC column (Phenomenex) and separated using a gradient elution from 75% buffer A (0.1% TFA in water) to 75% buffer B (50% 2-propanol in acetonitrile) in 40 min. Under these conditions, lipo-peptides were retarded but free peptides elute with the solvent front (Marekov, L. N. and P. M. Steinert, J. Biol. Chem., 273: 17763-17770 (1998), herein expressly incorporated by reference in its entirety).
Amino acid analysis of hydrolyzed samples (5.7 N HCl at 110° C. for 24 h in vacuo) was used to routinely measure amounts of lipo-peptides. Aliquots of isolated lipo-peptide peaks were attached to a solid support for sequencing (Marekov, L. N. and P. M. Steinert, J. Biol. Chem., 273: 17763-17770 (1998), herein expressly incorporated by reference in its entirety). Saponification of lipo-peptides was done with 1 N KOH in 80% methanol for 2 h at 37° C., after which the solution was acidified, dried and peptides were recovered by HPLC on a C18 column.

Molecule: phosphatidic acid [reference compound]
- effect on involucrin binding to SLV when substituted for PS [1]: did not enhance binding

Molecule: O=C(O)CN(CCOCCOCCN(CC(=O)O)CC(=O)O)CC(=O)O [EGTA, reference compound]
- effect on Ca++-induced binding of involucrin to SLVs [1]: completely reversible

Molecule: palmitoylsphingosine
- involucrin-lipid adduct formation by TGase 1 on SLV membranes (TGase 1): no involucrin-adduct formation was observed

Molecule: CCCCCCO [1-hexanol]
- inhibition of formation of lipid Z ester (TGase 1; up to 2% 1-hexanol): did not significantly (p=0.05) inhibit

Molecule: NCCCCN [Putrescine, putrescine]
- inhibition of ester formation of each reactive Gln residue (TGase 1; 1 mM putrescine included in the reaction): 2-3 fold
- reduction in ester yields (TGase 1; 20 mM putrescine added at 45 min, compared to 1 h levels): significantly (p<0.01) reduced; also recorded: about a two-fold and time dependent reduction

Molecule: phosphatidyl glycerol [reference compound]
- effect on involucrin binding to SLV when substituted for PS [1]: did not enhance binding

Molecule: O=C(O)CN(CCN(CC(=O)O)CC(=O)O)CC(=O)O [EDTA]
- effect on Ca++-induced binding of involucrin to SLVs [1]: completely reversible
- inhibition of lipid Z esterification (TGase 1; EDTA present (5 mM elsewhere in the source)): no lipo-peptides were recovered; also recorded: completely inhibited

Molecule: 16-hydroxypalmitoylsphingosine
- involucrin-lipid adduct formation by TGase 1 on SLV membranes (TGase 1): no involucrin-adduct formation was observed

Molecule: [Mg+2] [magnesium]
- effect on Ca++-induced binding of involucrin to SLVs [1]: did not support the binding

Molecule: NCCSSCCN [cystamine]
- inhibition of lipid Z esterification (TGase 1; 20 mM cystamine): significantly reduced; also recorded: completely inhibited

Molecule: phosphatidyl inositol [reference compound]
- effect on involucrin binding to SLV when substituted for PS [1]: did not enhance binding

B1: TGase 3: recombinant full-length human TGase 3, activated with dispase (protein, UniProt Q08188 1-693, looked up)
chain: MAALGVQSINWQTAFNRQAHHTDKFSSQELILRRGQNFQVLMIMNKGLGSNERLEFIVSTGPYPSESAMTKAVFPLSNGSSGGWSAVLQASNGNTLTISISSPASAPIGRYTMALQIFSQGGISSVKLGTFILLFNPWLNVDSVFMGNHAEREEYVQEDAGIIFVGSTNRIGMIGWNFGQFEEDILSICLSILDRSLNFRRDAATDVASRNDPKYVGRVLSAMINSNDDNGVLAGNWSGTYTGGRDPRSWNGSVEILKNWKKSGFSPVRYGQCWVFAGTLNTALRSLGIPSRVITNFNSAHDTDRNLSVDVYYDPMGNPLDKGSDSVWNFHVWNEGWFVRSDLGPSYGGWQVLDATPQERSQGVFQCGPASVIGVREGDVQLNFDMPFIFAEVNADRITWLYDNTTGKQWKNSVNSHTIGRYISTKAVGSNARMDVTDKYKYPEGSDQERQVFQKALGKLKPNTPFAATSSMGLETEEQEPSIIGKLKVAGMLAVGKEVNLVLLLKNLSRDTKTVTVNMTAWTIIYNGTLVHEVWKDSATMSLDPEEEAEHPIKISYAQYEKYLKSDNMIRITAVCKVPDESEVVVERDIILDNPTLTLEVLNEARVRKPVNVQMLFSNPLDEPVRDCVLMVEGSGLLLGNLKIDVPTLGPKEGSRVRFDILPSRSGTKQLLADFSCNKFPAIKAMLSIDVAE
modifications: full-length activated by dispase cleavage
- binding to SLV [1]: unable to associate with an SLV of any composition tested

B2: loricrin: recombinant human CE protein (protein, UniProt P23490 1-312, looked up)
Loricrin: MSYQKKQPTPQPPVDCVKTSGGGGGGGGSGGGGCGFFGGGGSGGGSSGSGCGYSGGGGYSGGGCGGGSSGGGGGGGIGGCGGGSGGSVKYSGGGGSSGGGSGCFSSGGGGSGCFSSGGGGSSGGGSGCFSSGGGGSSGGGSGCFSSGGGGFSGQAVQCQSYGGVSSGGSSGGGSGCFSSGGGGGSVCGYSGGGSGCGGGSSGGSGSGYVSSQQVTQTSCAPQPSYGGGSSGGGGSGGSGCFSSGGGGGSSGCGGGSSGIGSGCIISGGGSVCGGGSSGGGGGGSSVGGSGSGKGVPICHQTQQKQAPTWPSK
- binding to SLV [1]: unable to directly attach to SLV
